Measurements reported in US12077503B2, “Substituted cyclic amides and their use as herbicides” (FMC CORPORATION, priority 2015, dated 2024).

How the values were obtained:
Format in all cases: in vivo
[1] = system: barnyardgrass (Echinochloa crus-galli); test: Test G Pre-Emergence Protocol; settings: Echinochloa crus-galli, pre-emergence, 312 h, evaluated after 13 days; for pest or weed control at 15.625 g/ha: 15.625 g ai/ha, read-out: Barnyard grass damage rating (100=total damage to plant; 0=no damage to plant); for pest or weed control at 62.5 g/ha: 62.5 g ai/ha, 100=total damage to plant, 0=no damage to plant, read-out: plant damage rating, Barnyardgrass; for pest or weed control at 250 g/ha: 250 g ai/ha, read-out: Barnyardgrass damage rating (100=total damage to plant; 0=no damage to plant)
How it was run: (§1)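 One day after sowing, pots are treated with a spray of test compound formulated in acetone/water 50:50 plus 0.5% Tween 20, giving 15.625, 62.5 or 250 g/ha. Evaluation on a 0–100 damage scale follows 13 days of glasshouse growth.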

corn (Zea mays) [2] = test: Test G Pre-Emergence Protocol; settings: Zea mays, pre-emergence, 312 h, evaluated after 13 days; for plant injury at 15.625 g/ha: 15.625 g ai/ha; for plant injury at 15.625 g/ha / plant injury at 250 g/ha: read-out: Corn damage rating (100=total damage to plant; 0=no damage to plant); for plant injury at 62.5 g/ha: 62.5 g ai/ha, 100=total damage to plant, 0=no damage to plant, read-out: plant damage rating, Corn; for plant injury at 250 g/ha: 250 g ai/ha
How it was run: as §1

[3] = system: giant foxtail (Setaria faberi); test: Test G Pre-Emergence Protocol; settings: Setaria faberi, pre-emergence, 312 h, evaluated after 13 days; for pest or weed control at 15.625 g/ha: 15.625 g ai/ha; for pest or weed control at 15.625 g/ha / pest or weed control at 250 g/ha: read-out: Foxtail, Giant damage rating (100=total damage to plant; 0=no damage to plant); for pest or weed control at 62.5 g/ha: 62.5 g ai/ha, 100=total damage to plant, 0=no damage to plant, read-out: plant damage rating, Foxtail, Giant; for pest or weed control at 250 g/ha: 250 g ai/ha
How it was run: as §1

[4] = system: ivy-leaved morning glory (Ipomoea hederacea); test: Test G Pre-Emergence Protocol; settings: Ipomoea, pre-emergence, 312 h, evaluated after 13 days; for pest or weed control at 15.625 g/ha: 15.625 g ai/ha, read-out: Morning-glory, Ivy-leaved damage rating (100=total damage to plant; 0=no damage to plant); for pest or weed control at 62.5 g/ha: 62.5 g ai/ha, 100=total damage to plant, 0=no damage to plant, read-out: plant damage rating, Morningglory, Ivy-leaved; for pest or weed control at 250 g/ha: 250 g ai/ha, read-out: Morningglory, Ivy-leaved damage rating (100=total damage to plant; 0=no damage to plant)
How it was run: as §1

[5] = system: redroot pigweed (Amaranthus retroflexus); test: Test G Pre-Emergence Protocol; settings: Amaranthus retroflexus, pre-emergence, 312 h, evaluated after 13 days; for pest or weed control at 15.625 g/ha: 15.625 g ai/ha; for pest or weed control at 15.625 g/ha / pest or weed control at 250 g/ha: read-out: Pigweed, Redroot damage rating (100=total damage to plant; 0=no damage to plant); for pest or weed control at 62.5 g/ha: 62.5 g ai/ha, 100=total damage to plant, 0=no damage to plant, read-out: plant damage rating, Pigweed, Redroot; for pest or weed control at 250 g/ha: 250 g ai/ha
How it was run: as §1

[6] = system: velvetleaf (Abutilon theophrasti); test: Test G Pre-Emergence Protocol; settings: Abutilon theophrasti, pre-emergence, 312 h, evaluated after 13 days; for pest or weed control at 15.625 g/ha: 15.625 g ai/ha; for pest or weed control at 15.625 g/ha / pest or weed control at 250 g/ha: read-out: Velvetleaf damage rating (100=total damage to plant; 0=no damage to plant); for pest or weed control at 62.5 g/ha: 62.5 g ai/ha, 100=total damage to plant, 0=no damage to plant, read-out: plant damage rating, Velvetleaf; for pest or weed control at 250 g/ha: 250 g ai/ha
How it was run: as §1

[7] = system: barnyardgrass (Echinochloa crus-galli); test: Test G Post-Emergence Protocol; settings: Echinochloa crus-galli, post-emergence, 312 h; for pest or weed control at 15.625 g/ha: 15.625 g ai/ha, evaluated after 13 days (100=total damage to plant; 0=no damage to plant), read-out: Barnyardgrass damage rating; for pest or weed control at 62.5 g/ha: 62.5 g ai/ha, read-out: Barnyardgrass damage rating (100=total damage to plant; 0=no damage to plant); for pest or weed control at 62.5 g/ha / pest or weed control at 250 g/ha: evaluated after 13 days; for pest or weed control at 250 g/ha: 250 g ai/ha, read-out: damage to plant, Barnyardgrass (100=total damage to plant; 0=no damage to plant)
How it was run: (§2)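 Scores run 0 (no damage) to 100 (total damage) and were taken 13 days after spraying. Plants had been raised in pots for 8 days under glasshouse control (24/16 °C, 14 h photoperiod, 65% humidity) and then treated at 15.625, 62.5 or 250 g/ha.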

corn (Zea mays) [8] = test: Test G Post-Emergence Protocol; settings: Zea mays, post-emergence, 312 h; for plant injury at 15.625 g/ha: 15.625 g ai/ha, evaluated after 13 days (100=total damage to plant; 0=no damage to plant), read-out: Corn damage rating; for plant injury at 62.5 g/ha: 62.5 g ai/ha, read-out: Corn damage rating (100=total damage to plant; 0=no damage to plant); for plant injury at 62.5 g/ha / plant injury at 250 g/ha: evaluated after 13 days; for plant injury at 250 g/ha: 250 g ai/ha, read-out: damage to plant, Corn (100=total damage to plant; 0=no damage to plant)
How it was run: as §2

[9] = system: giant foxtail (Setaria faberi); test: Test G Post-Emergence Protocol; settings: Setaria faberi, post-emergence, 312 h; for pest or weed control at 15.625 g/ha: 15.625 g ai/ha, evaluated after 13 days (100=total damage to plant; 0=no damage to plant), read-out: Foxtail, Giant damage rating; for pest or weed control at 62.5 g/ha: 62.5 g ai/ha, read-out: Foxtail, Giant damage rating (100=total damage to plant; 0=no damage to plant); for pest or weed control at 62.5 g/ha / pest or weed control at 250 g/ha: evaluated after 13 days; for pest or weed control at 250 g/ha: 250 g ai/ha, read-out: damage to plant, Foxtail, Giant (100=total damage to plant; 0=no damage to plant)
How it was run: as §2

[10] = system: ivy-leaved morning glory (Ipomoea hederacea); test: Test G Post-Emergence Protocol; settings: Ipomoea, post-emergence, 312 h; for pest or weed control at 15.625 g/ha: 15.625 g ai/ha, evaluated after 13 days (100=total damage to plant; 0=no damage to plant), read-out: Morningglory, Ivy-leaved damage rating; for pest or weed control at 62.5 g/ha: 62.5 g ai/ha, read-out: Morningglory, Ivy-leaved damage rating (100=total damage to plant; 0=no damage to plant); for pest or weed control at 62.5 g/ha / pest or weed control at 250 g/ha: evaluated after 13 days; for pest or weed control at 250 g/ha: 250 g ai/ha, read-out: damage to plant, Morningglory, Ivy-leaved (100=total damage to plant; 0=no damage to plant)
How it was run: as §2

[11] = system: redroot pigweed (Amaranthus retroflexus); test: Test G Post-Emergence Protocol; settings: Amaranthus retroflexus, post-emergence, 312 h; for pest or weed control at 15.625 g/ha: 15.625 g ai/ha, evaluated after 13 days (100=total damage to plant; 0=no damage to plant), read-out: Pigweed, Redroot damage rating; for pest or weed control at 62.5 g/ha: 62.5 g ai/ha, read-out: Pigweed, Redroot damage rating (100=total damage to plant; 0=no damage to plant); for pest or weed control at 62.5 g/ha / pest or weed control at 250 g/ha: evaluated after 13 days; for pest or weed control at 250 g/ha: 250 g ai/ha, read-out: damage to plant, Pigweed, Redroot (100=total damage to plant; 0=no damage to plant)
How it was run: as §2

[12] = system: velvetleaf (Abutilon theophrasti); test: Test G Post-Emergence Protocol; settings: Abutilon theophrasti, post-emergence, 312 h; for pest or weed control at 15.625 g/ha: 15.625 g ai/ha, evaluated after 13 days (100=total damage to plant; 0=no damage to plant), read-out: Velvetleaf damage rating; for pest or weed control at 62.5 g/ha: 62.5 g ai/ha, read-out: Velvetleaf damage rating (100=total damage to plant; 0=no damage to plant); for pest or weed control at 62.5 g/ha / pest or weed control at 250 g/ha: evaluated after 13 days; for pest or weed control at 250 g/ha: 250 g ai/ha, read-out: damage to plant, Velvetleaf (100=total damage to plant; 0=no damage to plant)
How it was run: as §2

SMILES | pest or weed control at 15.625 g/ha [1] | pest or weed control at 62.5 g/ha [1] | pest or weed control at 250 g/ha [1] | plant injury at 15.625 g/ha (corn (Zea mays) [2]) | plant injury at 62.5 g/ha (corn (Zea mays) [2]) | plant injury at 250 g/ha (corn (Zea mays) [2]) | pest or weed control at 15.625 g/ha [3] | pest or weed control at 62.5 g/ha [3] | pest or weed control at 250 g/ha [3] | pest or weed control at 15.625 g/ha [4] | pest or weed control at 62.5 g/ha [4] | pest or weed control at 250 g/ha [4] | pest or weed control at 15.625 g/ha [5] | pest or weed control at 62.5 g/ha [5] | pest or weed control at 250 g/ha [5] | pest or weed control at 15.625 g/ha [6] | pest or weed control at 62.5 g/ha [6] | pest or weed control at 250 g/ha [6] | pest or weed control at 15.625 g/ha [7] | pest or weed control at 62.5 g/ha [7] | also measured
CCc1nccc(NC(=O)[C@@H]2C(=O)N(C)C[C@H]2c2ccc(C(F)(F)F)cc2)c1Cl (racemic) [Compound 1538] | 0% | 30% | 50% | 0% | 0% | 0% | 0% | 20% | 60% | 0% | 0% | 70% | 0% | 0% | 0% | 0% | 0% | 0% | 0% | 0% | pest or weed control at 250 g/ha [7]: 10%; plant injury at 15.625 g/ha (corn (Zea mays) [8]): 0%; plant injury at 62.5 g/ha (corn (Zea mays) [8]): 0%; plant injury at 250 g/ha (corn (Zea mays) [8]): 10%; pest or weed control at 15.625 g/ha [9]: 10%; pest or weed control at 62.5 g/ha [9]: 30%; pest or weed control at 250 g/ha [9]: 50%; pest or weed control at 15.625 g/ha [10]: 0%; pest or weed control at 62.5 g/ha [10]: 0%; pest or weed control at 250 g/ha [10]: 0%; pest or weed control at 15.625 g/ha [11]: 0%; pest or weed control at 62.5 g/ha [11]: 0%; pest or weed control at 250 g/ha [11]: 0%; pest or weed control at 15.625 g/ha [12]: 0%; pest or weed control at 62.5 g/ha [12]: 0%; pest or weed control at 250 g/ha [12]: 0%
CN1C[C@@H](c2ccc(C(F)(F)F)cc2)[C@H](C(=O)Nc2cccc3c2CCC3)C1=O (racemic) [Compound 1624] | 0% | 0% | 80% | 0% | 0% | 0% | 20% | 60% | 80% | 0% | 0% | 0% | 0% | 0% | 20% | 0% | 0% | 10% | 0% | 20% | pest or weed control at 250 g/ha [7]: 70%; plant injury at 15.625 g/ha (corn (Zea mays) [8]): 0%; plant injury at 62.5 g/ha (corn (Zea mays) [8]): 10%; plant injury at 250 g/ha (corn (Zea mays) [8]): 10%; pest or weed control at 15.625 g/ha [9]: 10%; pest or weed control at 62.5 g/ha [9]: 80%; pest or weed control at 250 g/ha [9]: 80%; pest or weed control at 15.625 g/ha [10]: 10%; pest or weed control at 62.5 g/ha [10]: 20%; pest or weed control at 250 g/ha [10]: 20%; pest or weed control at 15.625 g/ha [11]: 0%; pest or weed control at 62.5 g/ha [11]: 30%; pest or weed control at 250 g/ha [11]: 20%; pest or weed control at 15.625 g/ha [12]: 0%; pest or weed control at 62.5 g/ha [12]: 10%; pest or weed control at 250 g/ha [12]: 10%
CN1C[C@@H](c2ccc(C(F)(F)F)cc2)[C@H](C(=O)Nc2cc(C(F)(F)F)no2)C1=O (racemic) [Compound 1511] | 0% | 0% | 0% | 0% | 0% | 0% | 0% | 0% | 0% | 0% | 0% | 0% | 0% | 0% | 0% | 0% | 0% | 0% | 0% | 0% | pest or weed control at 250 g/ha [7]: 0%; plant injury at 15.625 g/ha (corn (Zea mays) [8]): 0%; plant injury at 62.5 g/ha (corn (Zea mays) [8]): 0%; plant injury at 250 g/ha (corn (Zea mays) [8]): 0%; pest or weed control at 15.625 g/ha [9]: 0%; pest or weed control at 62.5 g/ha [9]: 0%; pest or weed control at 250 g/ha [9]: 0%; pest or weed control at 15.625 g/ha [10]: 0%; pest or weed control at 62.5 g/ha [10]: 0%; pest or weed control at 250 g/ha [10]: 0%; pest or weed control at 15.625 g/ha [11]: 0%; pest or weed control at 62.5 g/ha [11]: 0%; pest or weed control at 250 g/ha [11]: 0%; pest or weed control at 15.625 g/ha [12]: 0%; pest or weed control at 62.5 g/ha [12]: 0%; pest or weed control at 250 g/ha [12]: 0%
